Assay results from the supplement of paper PMC10307832.

Key:
Experiment in all cases: relative viability (nuclei count vs DMSO), 5 days (fraction); higher = more cells survive
[1] = compound: C1=CC=C2C(=C1)N=C(S2)C(C#N)C3=NC(=NC=C3)NCCC4=CN=CC=C4 + Nc1nc2[nH]cc(CCc3ccc(C(=O)N[C@@H](CCC(=O)O)C(=O)O)cc3)c2c(=O)[nH]1 [Pemetrexed] (partner 0.2 µM)
Procedure, shortened: (§1)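 One day after seeding in 1536-well plates, lung cancer cell lines were dosed by pin tool. Dosing was either single-drug or a fixed anchor-drug dose plus five library-drug doses (not always all listed) in √10 steps. After 5 days, nuclei were stained in one fix-and-stain step and counted on 4× images, and relative viability is the nuclei count of treated wells over that of vehicle wells, given as the median of duplicate plates.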

CUDC-101 + Linsitinib = compound: C#Cc1cccc(Nc2ncnc3cc(OC)c(OCCCCCCC(=O)NO)cc23)c1 [CUDC-101] + C[C@]1(O)C[C@@H](c2nc(-c3ccc4ccc(-c5ccccc5)nc4c3)c3c(N)nccn32)C1 [Linsitinib] (partner 1 µM)
Procedure, shortened: as §1

NVP-TAE684 + Trametinib = compound: COc1cc(N2CCC(N3CCN(C)CC3)CC2)ccc1Nc1ncc(Cl)c(Nc2ccccc2S(=O)(=O)C(C)C)n1 [NVP-TAE684] + CC(=O)Nc1cccc(-n2c(=O)n(C3CC3)c(=O)c3c(Nc4ccc(I)cc4F)n(C)c(=O)c(C)c32)c1 [Trametinib] (partner 0.02 µM)
Procedure, shortened: as §1

Vandetanib + Linsitinib = compound: COc1cc2/c(=N/c3ccc(Br)cc3F)nc[nH]c2cc1OCC1CCN(C)CC1 [Vandetanib] + C[C@]1(O)C[C@@H](c2nc(-c3ccc4ccc(-c5ccccc5)nc4c3)c3c(N)nccn32)C1 [Linsitinib] (partner 1 µM)
Procedure, shortened: as §1

Cell Line	relative viability ([1]; first compound 0.005 µM)	relative viability ([1]; first compound 0.01581 µM)	relative viability ([1]; first compound 0.05 µM)	relative viability ([1]; first compound 0.1581 µM)	relative viability ([1]; first compound 0.5 µM)	relative viability (CUDC-101 + Linsitinib; first compound 0.01 µM)	relative viability (CUDC-101 + Linsitinib; first compound 0.03162 µM)	relative viability (CUDC-101 + Linsitinib; first compound 0.1 µM)	relative viability (CUDC-101 + Linsitinib; first compound 0.3162 µM)	relative viability (CUDC-101 + Linsitinib; first compound 1 µM)	relative viability (NVP-TAE684 + Trametinib; first compound 0.2 µM)	relative viability (NVP-TAE684 + Trametinib; first compound 0.6325 µM)	relative viability (NVP-TAE684 + Trametinib; first compound 2 µM)	relative viability (Vandetanib + Linsitinib; first compound 0.02 µM)	relative viability (Vandetanib + Linsitinib; first compound 0.06325 µM)	relative viability (Vandetanib + Linsitinib; first compound 0.2 µM)	relative viability (Vandetanib + Linsitinib; first compound 0.6325 µM)	relative viability (Vandetanib + Linsitinib; first compound 2 µM)
NCI-H358	0.265	0.173	0.169	0.165	0.188	0.849	0.71	0.793	0.646	0.323	0.147	0.107	0.0912	0.764	0.708	0.201	0.501	0.301
NCI-H441	0.317	0.279	0.238	0.276	0.265	0.748	0.662	0.579	0.779	0.358	0.359	0.333	0.263	0.597	0.538	0.498	0.592	0.472
NCI-H460	–	0.0618	0.0556	0.0607	0.0831	0.928	0.648	0.901	0.757	0.595	0.173	0.16	0.0273	0.733	0.758	0.0194	0.757	0.58
NCI-H520	0.528	0.652	0.784	0.834	0.818	0.997	–	1.05	0.982	0.485	0.73	0.695	0.204	0.886	1.1	0.942	0.904	0.912
NCI-H596	0.464	0.517	0.485	0.58	0.495	1.08	0.923	1.03	1.13	0.882	0.712	0.581	0.688	1.04	0.942	1.11	0.956	0.972
NCI-H647	0.165	0.175	0.182	0.179	0.19	1.23	1.03	1.18	1.1	1.12	0.483	0.489	0.216	1.1	1.13	1.08	1.2	1.14
NCI-H650	0.938	0.879	0.905	0.924	1.14	0.992	0.876	1.04	0.662	0.688	1.08	0.951	0.726	0.872	0.839	0.677	0.792	0.254
NCI-H661	0.84	0.916	0.85	0.904	0.876	0.64	0.487	0.74	0.681	0.675	0.552	0.616	0.563	0.585	0.506	0.59	0.672	0.418
NCI-H838	0.216	0.242	0.243	0.262	0.249	1.08	0.85	1.08	1.06	0.898	0.566	0.407	0.202	1.02	1.07	1.02	1.01	1.01
NCI-H1355	1.05	1.01	1.02	1.13	1.02	0.887	0.761	0.822	0.739	0.645	0.399	0.398	0.3	0.732	0.732	0.551	0.812	0.755
NCI-H1395	0.71	–	0.949	1.13	0.952	1.13	1.05	0.963	1.07	0.888	1.09	1.15	0.944	1.1	1.09	0.934	0.968	1.18
NCI-H1437	0.329	0.298	0.321	0.335	0.311	1.16	0.842	0.957	0.983	0.4	0.523	0.444	0.225	0.994	0.971	1.04	1.01	0.966
NCI-H1651	0.41	0.527	0.597	0.708	0.381	1.14	0.866	0.996	1.04	0.912	–	0.86	0.771	1	0.87	0.956	0.873	0.806
NCI-H1666	0.835	0.823	0.832	0.852	0.827	0.747	0.741	0.759	0.84	0.519	0.818	0.836	0.714	0.836	0.817	0.793	0.641	0.619
NCI-H1734	0.412	0.405	0.416	0.434	0.418	0.948	0.796	0.858	0.961	0.704	0.696	0.673	0.517	0.849	0.891	0.849	0.89	0.848
NCI-H1755	0.456	0.466	0.413	0.441	0.424	1.04	0.988	0.994	0.986	0.968	0.769	0.846	0.729	0.985	0.939	0.922	0.974	0.936
NCI-H1792	–	0.889	0.875	1.22	0.335	0.558	0.407	0.54	0.547	0.454	0.413	0.388	0.271	0.559	0.605	0.559	0.547	0.454
NCI-H1793	–	0.799	0.851	1.07	1.1	0.898	0.73	0.803	0.779	0.633	0.468	0.303	0.414	0.87	0.74	0.819	0.897	0.587

Cell Line	relative viability ([1]; first compound 0.005 µM)	relative viability ([1]; first compound 0.01581 µM)	relative viability ([1]; first compound 0.05 µM)	relative viability ([1]; first compound 0.1581 µM)	relative viability ([1]; first compound 0.5 µM)	relative viability (CUDC-101 + Linsitinib; first compound 0.01 µM)	relative viability (CUDC-101 + Linsitinib; first compound 0.03162 µM)	relative viability (CUDC-101 + Linsitinib; first compound 0.1 µM)	relative viability (CUDC-101 + Linsitinib; first compound 0.3162 µM)	relative viability (CUDC-101 + Linsitinib; first compound 1 µM)	relative viability (NVP-TAE684 + Trametinib; first compound 0.2 µM)	relative viability (NVP-TAE684 + Trametinib; first compound 0.6325 µM)	relative viability (NVP-TAE684 + Trametinib; first compound 2 µM)	relative viability (Vandetanib + Linsitinib; first compound 0.02 µM)	relative viability (Vandetanib + Linsitinib; first compound 0.06325 µM)	relative viability (Vandetanib + Linsitinib; first compound 0.2 µM)	relative viability (Vandetanib + Linsitinib; first compound 0.6325 µM)	relative viability (Vandetanib + Linsitinib; first compound 2 µM)
NCI-H1915	–	0.506	0.434	0.563	0.481	1.1	1.16	1.07	1.11	1	0.298	0.304	0.507	1.06	1.09	1.08	1.1	1.13
NCI-H1944	0.605	0.665	0.66	0.558	0.576	1.27	0.898	1.14	1.05	0.849	0.41	0.41	0.364	1.08	1.16	1.18	0.981	0.94
NCI-H1975	0.286	0.303	0.295	0.331	0.26	1.1	0.881	1.01	0.888	0.905	0.325	0.335	0.215	0.902	0.801	0.897	0.803	0.902
NCI-H1993	0.53	0.627	0.555	0.728	0.542	0.755	0.756	0.738	0.772	0.705	0.359	0.461	0.521	0.803	0.639	0.662	0.762	0.675
NCI-H2009	0.992	1.05	0.98	1.09	1.02	1.21	1.14	1.19	1.2	1.17	0.302	0.234	0.178	1.17	1.16	1.3	1.22	1.19
NCI-H2023	0.211	0.26	0.205	0.264	0.213	0.636	0.482	0.606	0.776	0.608	0.462	0.498	0.155	0.698	0.607	0.676	0.589	0.485
NCI-H2085	0.763	0.785	0.843	0.851	0.89	0.808	0.985	0.914	0.929	0.792	0.579	0.503	0.4	1.01	0.837	0.855	0.945	0.793
NCI-H2087	0.616	0.661	0.634	0.645	0.645	0.916	0.87	1.01	0.882	0.812	0.175	0.211	0.168	0.918	1.03	0.831	0.922	0.911
NCI-H2126	0.577	0.73	0.652	0.69	0.726	0.742	0.646	0.733	0.648	0.586	0.628	0.637	0.388	0.67	0.728	0.73	0.765	0.647
NCI-H2228	0.302	0.324	0.305	0.379	0.259	0.894	0.652	0.625	0.722	0.949	0.312	0.249	0.23	0.589	0.54	–	0.707	0.585
NCI-H2347	0.405	0.515	0.471	0.409	0.461	1.09	0.91	0.963	1.05	0.98	0.275	0.264	0.355	0.976	0.64	0.929	0.995	0.982
NCI-H2405	1.14	0.998	1.07	1.1	0.98	1.03	0.702	0.981	1.14	0.851	0.578	0.556	0.336	0.901	0.552	0.959	1.01	0.665
NCI-H3122	0.187	0.197	0.206	0.214	0.194	1.06	1.01	1.03	1.08	0.989	0.12	0.148	0.0944	1.01	0.946	0.957	0.964	0.993
PC-3 [JPC-3]	1.14	–	1.08	1.37	0.914	0.987	0.91	0.789	0.667	0.383	0.721	0.572	0.58	0.946	0.882	0.963	0.876	0.522
PC-14	0.155	0.133	0.106	0.136	0.148	0.986	0.782	1.01	0.683	0.137	0.677	0.62	0.0712	0.988	0.911	1.03	0.617	0.249
RERF-LC-KJ	0.468	0.505	0.465	0.507	0.502	0.965	1.01	0.839	0.849	0.694	0.861	0.772	0.664	0.922	0.859	0.939	0.835	0.763
SK-LU-1	0.81	1.06	0.956	1.12	0.89	1.17	0.942	1.08	0.868	0.773	0.42	0.445	0.383	1.05	0.759	0.896	1.12	1.12
